Source: ChEMBL document CHEMBL1667746, “Synthesis, antimicrobial activity and structure-activity relationship study of N,N-dibenzyl-cyclohexane-1,2-diamine derivatives” (Eur J Med Chem, 2011)
In brackets after ≈: the same amount, converted by molar mass. Activity calls are given as the source filed them. The rule behind the calls is not given here.

Columns and labels:
[1] = test system: Staphylococcus epidermidis; experiment: Antibacterial activity against Staphylococcus epidermidis after 24 hrs micro dilution assay; type: functional
Nakaseomyces glabratus = experiment: Antifungal activity against Candida glabrata MTCC 3019 after 24 hrs micro dilution assay; type: functional
[2] = Toxicity in human RBC assessed as hemolysis at 1024 ug/ml; type: cell-based, Erythrocyte; conditions: for Activity: erythrocyte; for hemolysis at 1024 ug/ml: red blood cells, read-out: Activity
Candida albicans = experiment: Antifungal activity against Candida albicans MTCC 3017 after 24 hrs micro dilution assay; type: functional
Escherichia coli = experiment: Antibacterial activity against Escherichia coli after 24 hrs micro dilution assay; type: functional
Staphylococcus aureus = experiment: Antibacterial activity against Staphylococcus aureus after 24 hrs micro dilution assay; type: functional
Geotrichum candidum = experiment: Antifungal activity against Geotrichum candidum NCIM 980 after 24 hrs micro dilution assay; type: functional
Pseudomonas aeruginosa = experiment: Antibacterial activity against Pseudomonas aeruginosa after 24 hrs micro dilution assay; type: functional
[3] = Staphylococcus epidermidis, 24 h, read-out: MIC
[4] = Escherichia coli, 24 h, read-out: MIC
[5] = Pseudomonas aeruginosa, 24 h, read-out: MIC
[6] = Staphylococcus aureus, 24 h, read-out: MIC

Compound	MIC [1, 3]	MIC (Nakaseomyces glabratus)	Activity [2]	MIC (Candida albicans)	MIC (Escherichia coli; [4])	MIC (Staphylococcus aureus)	MIC (Geotrichum candidum; NCIM 980, 24 h)	MIC (Pseudomonas aeruginosa; [5])	MIC (Nakaseomyces glabratus; MTCC 3019, 24 h)	hemolysis at 1024 ug/ml [2]	MIC (Staphylococcus aureus; [6])	MIC [1]	MIC (Escherichia coli)	MIC (Candida albicans; MTCC 3017, 24 h)	MIC (Pseudomonas aeruginosa)	MIC (Geotrichum candidum)
Cl.Fc1cccc(CNC2CCCCC2NCc2cccc(F)c2)c1 (configuration not stated)	0.25 µg/mL	inactive	Non-toxic	inactive	0.25 µg/mL	inactive	0.5 µg/mL	0.25 µg/mL								
Cl.FC(F)(F)c1cccc(CN[C@H]2CCCC[C@@H]2NCc2cccc(C(F)(F)F)c2)c1	0.065 µg/mL			inactive	0.032 µg/mL		0.125 µg/mL	0.008 µg/mL	0.125 µg/mL	3.7%	0.016 µg/mL					
Cl.O=[N+]([O-])c1ccc(CNC2CCCCC2NCc2ccc([N+](=O)[O-])cc2)cc1 (configuration not stated)		inactive	Non-toxic	inactive		inactive	0.5 µg/mL	0.125 µg/mL				inactive	inactive			
Cl.Clc1ccc(CNC2CCCCC2NCc2ccc(Cl)cc2)cc1 (configuration not stated)	0.008 µg/mL		Non-toxic		0.008 µg/mL		0.032 µg/mL	0.008 µg/mL	0.125 µg/mL		0.008 µg/mL			0.125 µg/mL		
Brc1ccc(CN[C@H]2CCCC[C@@H]2NCc2ccc(Br)cc2)cc1.Cl	0.016 µg/mL		Non-toxic		0.008 µg/mL		0.032 µg/mL	0.008 µg/mL	0.032 µg/mL		0.002 µg/mL			0.065 µg/mL		
Brc1cccc(CN[C@H]2CCCC[C@@H]2NCc2cccc(Br)c2)c1.Cl	0.032 µg/mL		Non-toxic		0.032 µg/mL		0.065 µg/mL		0.065 µg/mL		0.008 µg/mL			0.125 µg/mL	0.008 µg/mL	
Brc1cccc(CN[C@H]2CCCC[C@@H]2NCc2cccc(Br)c2)c1.Cl (racemic)						0.008 µg/mL						0.032 µg/mL	0.016 µg/mL		0.032 µg/mL	
CCc1ccc(CNC2CCCCC2NCc2ccc(CC)cc2)cc1.Cl (configuration not stated)	0.008 µg/mL				0.008 µg/mL		0.032 µg/mL	0.004 µg/mL	0.032 µg/mL	38.3%	0.008 µg/mL			0.032 µg/mL		
Brc1ccccc1CNC1CCCCC1NCc1ccccc1Br.Cl (configuration not stated)			Non-toxic			inactive						inactive	inactive		inactive	
Cl.FC(F)(F)c1ccc(CNC2CCCCC2NCc2ccc(C(F)(F)F)cc2C(F)(F)F)c(C(F)(F)F)c1 (configuration not stated)			Non-toxic			inactive						inactive	inactive		inactive	
c1ccc(CNC2CCCCC2NCc2ccccc2)cc1 (configuration not stated)						inactive						inactive	inactive		inactive	
Cl.Clc1ccc(CNC2CCCCC2NCc2ccc(Cl)cc2Cl)c(Cl)c1 (racemic)	0.032 µg/mL				0.032 µg/mL			0.016 µg/mL			0.016 µg/mL					
Brc1cccc(CNC2CCCCC2NCc2cccc(Br)c2)c1.Cl (configuration not stated)	0.065 µg/mL		Non-toxic		0.065 µg/mL		0.065 µg/mL	0.25 µg/mL	0.25 µg/mL		0.008 µg/mL			0.125 µg/mL		
Cl.FC(F)(F)c1ccc(CNC2CCCCC2NCc2ccc(C(F)(F)F)cc2)cc1 (configuration not stated)	0.032 µg/mL		Non-toxic		0.032 µg/mL		0.065 µg/mL	0.008 µg/mL	0.125 µg/mL		0.008 µg/mL			0.125 µg/mL		
Cl.FC(F)(F)c1ccccc1CNC1CCCCC1NCc1ccccc1C(F)(F)F (configuration not stated)	0.065 µg/mL	inactive	Non-toxic		0.25 µg/mL		0.5 µg/mL	0.032 µg/mL			0.065 µg/mL			0.5 µg/mL		
Cl.O=[N+]([O-])c1ccccc1CNC1CCCCC1NCc1ccccc1[N+](=O)[O-] (configuration not stated)			Non-toxic			inactive						inactive	inactive		inactive	
CC(C)(C)c1ccc(CNC2CCCCC2NCc2ccc(C(C)(C)C)cc2)cc1.Cl (configuration not stated)	0.008 µg/mL		Non-toxic		0.008 µg/mL		0.008 µg/mL	0.0006 µg/mL	0.008 µg/mL		0.004 µg/mL			0.008 µg/mL		
CC(C)c1ccc(CNC2CCCCC2NCc2ccc(C(C)C)cc2)cc1.Cl (configuration not stated)	0.008 µg/mL				0.004 µg/mL			0.0005 µg/mL	0.016 µg/mL	81.8%	0.008 µg/mL			0.008 µg/mL		inactive
Brc1ccc(CNC2CCCCC2NCc2ccc(Br)cc2)cc1.Cl (configuration not stated)	0.032 µg/mL		Non-toxic		0.25 µg/mL		0.032 µg/mL	0.032 µg/mL	0.125 µg/mL		0.016 µg/mL			0.125 µg/mL		
Cc1ccc(CNC2CCCCC2NCc2ccc(C)cc2)cc1.Cl (configuration not stated)	0.25 µg/mL	inactive		inactive	0.25 µg/mL		0.25 µg/mL	0.125 µg/mL		19.2%	0.125 µg/mL					
COc1ccc(CNC2CCCCC2NCc2ccc(OC)cc2)cc1.Cl (configuration not stated)			Non-toxic			inactive						inactive	inactive		inactive	
Cl.O=[N+]([O-])c1cccc(CNC2CCCCC2NCc2cccc([N+](=O)[O-])c2)c1 (configuration not stated)	1 µg/mL		Non-toxic		0.5 µg/mL			0.25 µg/mL			0.5 µg/mL					
Cl.Clc1ccc(CN[C@H]2CCCC[C@@H]2NCc2ccc(Cl)cc2)cc1	0.032 µg/mL				0.032 µg/mL			0.032 µg/mL		4.8%	0.032 µg/mL					
C[C@@H]1[C@H](O)[C@@H](C)/C=C/C=C/C=C/C=C/C=C/C=C/C=C/[C@H](O[C@@H]2O[C@H](C)[C@@H](O)[C@H](N)[C@@H]2O)C[C@@H]2O[C@](O)(C[C@@H](O)C[C@@H](O)[C@H](O)CC[C@@H](O)C[C@@H](O)CC(=O)O[C@H]1C)C[C@H](O)[C@H]2C(=O)O [AMPHOTERICIN B]							6.25 µg/mL (≈ 6.76 µM)		50 µg/mL (≈ 54.1 µM)					0.3 µg/mL (≈ 0.325 µM)		
Cl.FC(F)(F)c1ccc(C(F)(F)F)c(CNC2CCCCC2NCc2cc(C(F)(F)F)ccc2C(F)(F)F)c1 (configuration not stated)			Non-toxic			inactive						inactive	inactive		inactive	
Cl.Clc1cccc(CN[C@H]2CCCC[C@@H]2NCc2cccc(Cl)c2)c1 (racemic)	0.032 µg/mL	inactive			0.032 µg/mL	inactive	0.032 µg/mL	0.065 µg/mL						0.125 µg/mL		
CN(C)[C@@H]1C(O)=C(C(N)=O)C(=O)[C@@]2(O)C(O)=C3C(=O)c4c(O)cccc4[C@@](C)(O)[C@H]3C[C@@H]12 [TETRACYCLINE]	0.002 µg/mL (≈ 0.0045 µM)				0.001 µg/mL (≈ 0.00225 µM)						0.001 µg/mL (≈ 0.00225 µM)					
Clc1ccccc1CNC1CCCCC1NCc1ccccc1Cl (configuration not stated)						inactive				9.83%		inactive	inactive		inactive	
